Reference: US11390617B2, “Methods of treating non-Hodgkin lymphoma using 2-(2,6-dioxopiperidin-3-yl)-4-((2-fluoro-4-((3-morpholinoazetidin-1-yl)methyl)benzyl)amino)isoindoline-1,3-dione” (Celgene Corporation, priority 2019, dated 2022)

Tests used:
Test in all cases: NHL cell line viability/apoptosis 384-well flow cytometry assay
Assay type in all cases: cell-based
SU-DHL-10 = SU-DHL-10 (DLBCL), 120 hours
Description: (§1) The following exemplary anti-proliferative assay uses exemplary non-Hodgkin lymphoma (NIL) cell lines (including diffuse large B-cell lymphoma (DLBCL), follicular lymphoma (FL), and mantle cell lymphoma (MCL)) (Table 5). The in vitro growth inhibitory activity of Compound 1 described herein was evaluated using a 384-well flow cytometry assay.
(§2) The cell lines in Table 5 were plated in 384-well flat bottom plates and assessed with increasing concentrations of compound ranging from 0.00015 to 10 μM or dimethyl sulfoxide (DMSO) control. The final concentration of DMSO was 0.1% (v/v). Following the addition of Compound 1 or DMSO and incubation for 120 hours, cell number and cell death were analyzed by flow cytometry (Attune®, Thermo Fisher) using Annexin V and the live-cell impermeant DNA dye, DRAQ7. Phosphatidylserine translocates from the inner layer to the outer layer of the cell membrane early in apoptosis and Annexin V binds to the exposed phosphatidylserine found on the surface of an apoptotic cell. The vital dye DRAQ7 is excluded by intact live cells and only stains cells that have died as a result of apoptosis or necrosis.
(§3) Flow cytometry data analysis was then performed using the Flow Jo_v10 software to determine the number of viable cells (Annexin V and DRAQ7 double negative staining cells) and percentage of apoptotic cells (Annexin V positive cells) for each condition. The live cell count for every concentration was normalized to the DMSO control (considered as 100%) to calculate the percentage of viable cells remaining after treatment and graphed using GraphPad Prism 7.03. The IC50 (50% inhibitory concentration) and Emax (maximum efficacy achieved) values were then calculated by performing nonlinear regression curve fitting using log(inhibitor) vs. normalized response—variable slope analysis on GraphPad Prism 7.03. Area under the curve (AUC) was calculated by performing area under curve analysis on GraphPad Prism 7.03. Similarly, for apoptosis analysis, the percentage of apoptosis combining both “early” (Annexin V positive and DRAQ7 negative) and “late” apoptosis (Annexin V and DRAQ7 positive) cell gates relative to DMSO was graphed using GraphPad Prism 7.03. The AUC, EC50 (concentration of Compound 1 that produces half-maximal apoptosis response) and Ymax (maximal percentage of apoptosis achieved) values from apoptosis curves were calculated by performing area under curve analysis and nonlinear regression curve fitting using log(agonist) vs. normalized response—Variable slope analysis on GraphPad Prism 7.03.
(§4) In Table 6, dose-response proliferation curves for the panel of NHL cell lines and non-linear curve-fit regression were used to determine IC50, AUC, and Emax for % viable cells (Emax for viability varies between 100 at low doses and 0 at high doses, which corresponds to inhibition of all viable cells), and dose-response apoptosis curves were used to determine the EC50, AUC, and Ymax for % apoptosis (Ymax for apoptosis varies from 0 at low doses and 100 at higher doses which corresponds to death of all cells). Tumor cells were exposed to serial dilutions (0.00015 to 10 μM) of Compound 1 or dimethyl sulfoxide (DMSO) control for 5 days. Viability and apoptosis for all cell lines was determined by Annexin V/[…] flow cytometry.

Pfeiffer = Pfeiffer (DLBCL), 120 hours
Description: as §1, §2, §3, §4

OCI-LY19 = OCI-LY19 (DLBCL), 120 hours
Description: as §1, §2, §3, §4

RC-K8 = RC-K8 (DLBCL), 120 hours
Description: as §1, §2, §3, §4

WILL-2 = WILL-2 (DLBCL), 120 hours
Description: as §1, §2, §3, §4

OCI-LY7 = OCI-LY7 (DLBCL), 120 hours
Description: as §1, §2, §3, §4

OCI-LY18 = OCI-LY18 (DLBCL), 120 hours
Description: as §1, §2, §3, §4

OCI-LY10 = OCI-LY10 (DLBCL), 120 hours
Description: as §1, §2, §3, §4

NU-DHL-1 = NU-DHL-1 (DLBCL), 120 hours
Description: as §1, §2, §3, §4

VAL = VAL (DLBCL), 120 hours
Description: as §1, §2, §3, §4

RIVA = RIVA (DLBCL), 120 hours
Description: as §1, §2, §3, §4

[1] = Homo sapiens, read-out: IC50 (% Viable Cells)
[2] = read-out: IC50 (% Viable Cells)

O=C1CC[C@H](N2C(=O)c3cccc(NCc4ccc(CN5CC(N6CCOCC6)C5)cc4F)c3C2=O)C(=O)N1 [Compound 1, (S)-2-(2,6-dioxopiperidin-3-yl)-4-((2-fluoro-4-((3-morpholinoazetidin-1-yl)methyl)benzyl)amino)isoindoline-1,3-dione]
EC50 (SU-DHL-10; Homo sapiens, SU-DHL10): 39.4 nM | IC50 (SU-DHL-10; Homo sapiens, SU-DHL10, read-out: IC50 (% Viable Cells)): 6.1 nM | AUC (% Viable Cells) (SU-DHL-10): 10.36 | AUC (Apoptosis) (SU-DHL-10): 903 | Emax (% Viable Cells) (SU-DHL-10): 0.6716% | Ymax (Apoptosis) (SU-DHL-10): 92.27% | EC50 (Pfeiffer; Homo sapiens): 13.6 nM | IC50 (Pfeiffer; [1]): 47.7 nM | AUC (% Viable Cells) (Pfeiffer): 313.5 | AUC (Apoptosis) (Pfeiffer): 493.3 | Emax (% Viable Cells) (Pfeiffer): 24.49% | Ymax (Apoptosis) (Pfeiffer): 51.82% | EC50 (OCI-LY19; Homo sapiens): 283 nM | IC50 (OCI-LY19; [1]): 29.4 nM | AUC (% Viable Cells) (OCI-LY19): 72.49 | AUC (Apoptosis) (OCI-LY19): 706.2 | Emax (% Viable Cells) (OCI-LY19): 3.228% | Ymax (Apoptosis) (OCI-LY19): 80.91% | EC50 (RC-K8; Homo sapiens, RCK8): 74.3 nM | IC50 (RC-K8; Homo sapiens, RCK8, read-out: IC50 (% Viable Cells)): 3.37 nM | AUC (% Viable Cells) (RC-K8): 115.7 | AUC (Apoptosis) (RC-K8): 349.2 | Emax (% Viable Cells) (RC-K8): 10.06% | Ymax (Apoptosis) (RC-K8): 26.31% | AUC (% Viable Cells) (WILL-2): 17.1 | AUC (Apoptosis) (WILL-2): 916.9 | EC50 (WILL-2): 89.7 nM | Emax (% Viable Cells) (WILL-2): 0.03115% | Ymax (Apoptosis) (WILL-2): 99.43% | IC50 (WILL-2; [2]): 2.36 nM | EC50 (OCI-LY7; Homo sapiens): 16.3 nM | IC50 (OCI-LY7; [1]): 6.48 nM | AUC (% Viable Cells) (OCI-LY7): 48.18 | AUC (Apoptosis) (OCI-LY7): 682.7 | Emax (% Viable Cells) (OCI-LY7): 4.191% | Ymax (Apoptosis) (OCI-LY7): 71.18% | EC50 (OCI-LY18; Homo sapiens): 2.98 nM | IC50 (OCI-LY18; [1]): 0.944 nM | AUC (% Viable Cells) (OCI-LY18): 1.965 | AUC (Apoptosis) (OCI-LY18): 965.2 | Emax (% Viable Cells) (OCI-LY18): 0.05973% | Ymax (Apoptosis) (OCI-LY18): 97.44% | EC50 (OCI-LY10; Homo sapiens): 320 nM | IC50 (OCI-LY10; [1]): 14.2 nM | AUC (% Viable Cells) (OCI-LY10): 125.3 | AUC (Apoptosis) (OCI-LY10): 188.9 | Emax (% Viable Cells) (OCI-LY10): 10.16% | Ymax (Apoptosis) (OCI-LY10): 22.31% | EC50 (NU-DHL-1; Homo sapiens): 1.27 nM | IC50 (NU-DHL-1; [1]): 1.07 nM | AUC (% Viable Cells) (NU-DHL-1): 12.37 | AUC (Apoptosis) (NU-DHL-1): 981.8 | Emax (% Viable Cells) (NU-DHL-1): 0.4919% | Ymax (Apoptosis) (NU-DHL-1): 99.17% | AUC (% Viable Cells) (VAL): 14.62 | AUC (Apoptosis) (VAL): 936.7 | EC50 (VAL): 0.605 nM | Emax (% Viable Cells) (VAL): 0.9632% | Ymax (Apoptosis) (VAL): 95.68% | IC50 (VAL; [2]): 0.57 nM | AUC (% Viable Cells) (RIVA): 452.6 | AUC (Apoptosis) (RIVA): 242.8 | EC50 (RIVA): 17.7 nM | Emax (% Viable Cells) (RIVA): 36.65% | Ymax (Apoptosis) (RIVA): 27.92% | IC50 (RIVA; [2]): 114 nM
